Here are results for 19 molecules from publication PMC8365602 (Journal of Medicinal Chemistry, 2021).

One may read the IC50 as the point on the concentration scale where inhibition reaches its midpoint.

Assay [1] addresses T1, 5-LOX (Homo sapiens, UniProt P09917).
T1 sequence (P09917 1-674): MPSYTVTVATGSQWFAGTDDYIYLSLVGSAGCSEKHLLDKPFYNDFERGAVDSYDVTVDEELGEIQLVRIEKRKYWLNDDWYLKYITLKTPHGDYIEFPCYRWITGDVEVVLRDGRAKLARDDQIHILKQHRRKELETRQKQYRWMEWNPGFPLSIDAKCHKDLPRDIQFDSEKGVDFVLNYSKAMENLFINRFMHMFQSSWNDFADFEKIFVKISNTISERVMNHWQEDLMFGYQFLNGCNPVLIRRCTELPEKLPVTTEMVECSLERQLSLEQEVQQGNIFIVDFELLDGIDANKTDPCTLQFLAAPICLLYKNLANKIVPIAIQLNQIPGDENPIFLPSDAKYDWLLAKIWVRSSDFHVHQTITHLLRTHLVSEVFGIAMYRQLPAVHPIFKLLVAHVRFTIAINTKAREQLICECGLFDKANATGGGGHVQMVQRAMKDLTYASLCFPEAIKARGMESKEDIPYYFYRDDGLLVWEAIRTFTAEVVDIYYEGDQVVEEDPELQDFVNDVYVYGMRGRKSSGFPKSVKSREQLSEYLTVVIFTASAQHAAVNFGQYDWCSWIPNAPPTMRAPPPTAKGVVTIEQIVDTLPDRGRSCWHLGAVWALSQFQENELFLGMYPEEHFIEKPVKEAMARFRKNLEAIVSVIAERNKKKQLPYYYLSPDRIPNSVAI
The assay can be described thus: Cell-free 5-LOX activity (isolated human recombinant enzyme).
Method: Human recombinant 5-LOX was expressed in E. coli Bl21 (DE3) cells that were transformed with pT3–5LOX (wt 5-LOX), 5-LOX_3W (triple mutation of Trp102Ala/Trp13Ala/Trp75Ala), or 5-LOX_R (single mutant of the Arg101Asp plasmid) and purified on an ATP-agarose column (Econo-Pac, Bio-Rad, Hercules, CA) by affinity chromatography.[6],[75]
Purified 5-LOX (0.5 μg in PBS pH 7.4 containing 1 mM EDTA and 1 mM ATP) was preincubated with the vehicle (DMSO) or test compounds for 10 min and prewarmed at 37 °C.

The target in assay [2] is T1, 5-LOX. The assay can be described thus: 5-LOX product formation in activated PMNL.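 Further: freshly isolated human PMNL in PBS pH 7.4 plus glucose, preincubated 10 min at 37 °C with compound, 5-LOX products (all-trans LTB4 isomers, 5-HETE) quantified by RP-HPLC.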
Method: These volunteers regularly donated blood (every 8–12 weeks) and were physically inspected by a clinician.
Erythrocytes were removed by dextran sedimentation and hypotonic lysis. PMNL were obtained from the cell pellet and platelets from the supernatant.
Freshly isolated PMNL (5 × 10^6) suspended in PBS pH 7.4 with 1 mg/mL glucose or freshly withdrawn human whole blood were preincubated with the test compounds for 10 min (or as indicated) at 37 °C. […] The reaction was stopped with an equal volume of methanol.
[3] abbreviates: read-out: 5-LOX enzyme IC50, isolated human 5-LOX, cell-free, mean ± SEM.
[4] abbreviates: read-out: 5-LOX enzyme residual activity at 1 μM.
The mark [5] stands for this setting: PMNL, read-out: 5-LOX PMNL residual activity at 3 μM.
Where [6] appears, read: read-out: 5-LOX PMNL IC50, 5-LOX product formation in activated PMNL, mean ± SEM.
Setting [7] is: read-out: 5-LOX enzyme residual activity at 1 µM (Table S1).
Setting [8] is: PMNL, read-out: 5-LOX PMNL residual activity at 3 µM (Table S1).

Read-outs that look alike come from different tables or passages of the source.

Consider `C/C(=C\CC[C@]1(C)CCc2cc(O)cc(C)c2O1)CCC=C(CO)CO` [Compound 28, (R,E)-2-(7-(6-Hydroxy-2,8-dimethylchroman-2-yl)-4-methylhept-4-en-1-ylidene)propane-1,3-diol], for which the IC50 at 5-LOX [1] (setting [3]) was found to be 170 ± 30 nM; on 5-LOX [2] (setting [6]), 2300 ± 260 nM. In addition, at 5-LOX [1] (setting [4]), the remaining activity at 1 µM worked out at 15 ± 2.4%. The remaining activity at 3 µM at 5-LOX [2] (setting [5]) worked out at 36.3 ± 6.5%.
For `C/C(=C\CC/C(C)=C/CC[C@]1(C)CCc2c(CN(C)C)c(O)cc(C)c2O1)CC/C=C(\C)C(=O)O` [Compound 23] the same measures were 70 ± 20 nM, 2060 ± 450 nM, 7.9 ± 3.6% and 33.1 ± 8%.
As to `C/C(=C\CC/C(C)=C/CC[C@]1(C)CCc2c(C)c(O)cc(C)c2O1)CCC=C(CO)CO` [Compound 27b], the results for the IC50 on 5-LOX [1] (setting [3]) and on 5-LOX [2] (setting [6]) were 90 ± 20 nM and 100 ± 20 nM, respectively. Moreover, the remaining activity at 1 µM on 5-LOX [1] (setting [4]) is 0%. The remaining activity at 3 µM on 5-LOX [2] (setting [5]) was 0.9 ± 0.5%.
For the molecule `COCOc1cc(C)c2c(c1C=O)CC[C@@](C)(CCC[C@H](C)CCC[C@H](C)CCCC(C)C)O2` [Compound 4, (R)-6-(Methoxymethoxy)-2,8-dimethyl-2-((4R,8R)-4,8,12-trimethyltridecyl)chromane-5-carbaldehyde], the IC50 on 5-LOX [1] is over 1000 nM; against 5-LOX [2], over 3000 nM. In addition, on 5-LOX [1] (setting [7]), the remaining activity at 1 µM is 77.3 ± 17.2%. The remaining activity at 3 µM on 5-LOX [2] (setting [8]) came to 91.9 ± 5.3%.
`COc1ccc(C2OCC(=CCC/C(C)=C/CC/C(C)=C/CC[C@]3(C)CCc4cc(O)cc(C)c4O3)CO2)cc1OC` (stereo partly shown) [Compound 44]: on 5-LOX [1], the half-maximal inhibitory concentration (IC50) was found to be 210 ± 140 nM. Also, at 5-LOX [1] (setting [4]), the remaining activity at 1 µM was determined as 12.7 ± 9.3%.
As for `COC(=O)C(C)CCC/C(C)=C/CC/C(C)=C/CC[C@]1(C)CCc2cc(O)cc(C)c2O1` (stereo partly drawn) [Compound 21, (6E,10E)-Methyl-13-((R)-6-hydroxy-2,8-dimethylchroman-2-yl)-2,6,10-trimethyltrideca-6,10-dienoate], the IC50 on 5-LOX [1] (setting [3]) is 170 ± 10 nM; at 5-LOX [2] (setting [6]), 1140 ± 390 nM. The remaining activity at 1 µM on 5-LOX [1] (setting [4]) is 5.8 ± 1.7%. The remaining activity at 3 µM at 5-LOX [2] (setting [5]) is 14.1 ± 6%.
For `C/C(=C\CC[C@]1(C)CCc2c(C)c(O)c(C)c(C)c2O1)CC/C=C(\C)CCC(=O)O` [Compound 15a, (4E,8E)-11-((R)-6-Hydroxy-2,5,7,8-tetramethylchroman-2-yl)-4,8-dimethylundeca-4,8-dienoic Acid] the same measures were 440 ± 70 nM, 450 ± 120 nM, 11.5 ± 1.8% and 10.6 ± 5.8%.
The like results for `C/C(=C\CC/C(C)=C/CC[C@]1(C)CCc2c(CN3CCN(C)CC3)c(O)c(CN3CCN(C)CC3)c(C)c2O1)CCC=C(CO)CO` [Compound 40, 2-((4E,8E)-11-((R)-6-Hydroxy-2,8-dimethyl-5,7-bis((4-methylpiperazin-1-yl)methyl)chroman-2-yl)-4,8-dimethylundeca-4,8-dien-1-ylidene)propane-1,3-diol] were, in that order, over 1000 nM, over 3000 nM, 50.3 ± 4.1% and 77.8 ± 7.6%.
For the molecule `COC(=O)C(C)CCC/C(C)=C/CC/C(C)=C/CC[C@]1(C)CCc2cc(OC)cc(C)c2O1` (stereo partly drawn) [Compound 22, (6E,10E)-Methyl-13-((R)-6-methoxy-2,8-dimethylchroman-2-yl)-2,6,10-trimethyltrideca-6,10-dienoate], at 5-LOX [1] (setting [3]), the IC50 was over 1000 nM. The remaining activity at 1 µM on 5-LOX [1] (setting [4]) came out at 88.7 ± 4.3%.
In the case of `C/C(=C\CC[C@]1(C)CCc2cc(O)cc(C)c2O1)C(=O)O` [Compound 18, (R,E)-5-(6-Hydroxy-2,8-dimethylchroman-2-yl)-2-methylpent-2-enoic Acid], the half-maximal inhibitory concentration (IC50) is over 1000 nM at 5-LOX [1] (setting [3]) and over 3000 nM at 5-LOX [2] (setting [6]). Also, on 5-LOX [1] (setting [4]), the remaining activity at 1 µM was determined as 56.4 ± 18.3%. The remaining activity at 3 µM on 5-LOX [2] (setting [5]) worked out at 88.8 ± 6.4%.
For `C/C(=C\CC/C(C)=C/CC[C@]1(C)CCc2cc(OC(=O)CCC(=O)O)cc(C)c2O1)CCC=C(CO)CO` [Compound 31, 4-(((R)-2-((3E,7E)-13-Hydroxy-12-(hydroxymethyl)-4,8-dimethyltrideca-3,7,11-trien-1-yl)-2,8-dimethylchroman-6-yl)oxy)-4-oxobutanoic Acid], the half-inhibitory concentration (IC50) amounted to 90 ± 30 nM at 5-LOX [1] (setting [3]) and 450 ± 100 nM on 5-LOX [2] (setting [6]). Besides, the remaining activity at 1 µM at 5-LOX [1] (setting [4]) amounted to 1.1 ± 0.6%; on 5-LOX [2] (PMNL, read-out: 5-LOX PMNL residual activity at 1 μM (cells marked b)) it was 26.4 ± 6.7%.
As for `COc1ccc(C2OCC(=CCC/C(C)=C/CC/C(C)=C/CC[C@]3(C)CCc4c(C)c(O)c(CO)c(C)c4O3)CO2)cc1OC` (stereo partly drawn) [Compound 46, (2R)-2-((3E,7E)-11-(2-(3,4-Dimethoxyphenyl)-1,3-dioxan-5-ylidene)-4,8-dimethylundeca-3,7-dien-1-yl)-7-(hydroxymethyl)-2,5,8-trimethylchroman-6-ol], the IC50 is 90 nM at 5-LOX [1] and 390 ± 180 nM on 5-LOX [2]. Besides, at 5-LOX [1] (setting [4]), the remaining activity at 1 µM is 0.7 ± 0.1%. The remaining activity at 3 µM on 5-LOX [2] (setting [5]) was 22.2 ± 8.8%.
In the case of `Cc1cc(O)c(C=O)c2c1O[C@](C)(CCC[C@H](C)CCC[C@H](C)CCCC(C)C)CC2` [Compound 3], the IC50 on 5-LOX [1] was over 1000 nM; at 5-LOX [2], over 3000 nM. For the same molecule, the remaining activity at 1 µM at 5-LOX [1] (setting [7]) is 94.6 ± 3.5%. Further, on 5-LOX [2] (setting [8]), the remaining activity at 3 µM amounted to 92.2 ± 6.3%.
In the case of `C/C(=C\CC/C(C)=C/CC[C@]1(C)CCc2c(CN3CCCCC3)c(O)cc(C)c2O1)CCC=C(CO)CO` [Compound 38, 2-((4E,8E)-11-((R)-6-Hydroxy-2,8-dimethyl-5-(piperidin-1-ylmethyl)chroman-2-yl)-4,8-dimethylundeca-4,8-dien-1-ylidene)propane-1,3-diol], the IC50 at 5-LOX [1] (setting [3]) was 110 ± 20 nM; at 5-LOX [2] (setting [6]), 1950 ± 70 nM. The remaining activity at 1 µM on 5-LOX [1] (setting [4]) turned out to be 5.1 ± 0.9%. Also, the remaining activity at 3 µM at 5-LOX [2] (setting [5]) is 11.7 ± 1.8%.
The like results for `C/C(=C\CC[C@]1(C)CCc2c(C)c(O)cc(C)c2O1)CC/C=C(\C)CCCC(C)C(=O)O` (stereo partly drawn) [Compound 19a, (6E,10E)-13-((R)-6-Hydroxy-2,5,8-trimethylchroman-2-yl)-2,6,10-trimethyltrideca-6,10-dienoic Acid] were, in that order, 810 ± 80 nM, 810 ± 330 nM, 41.2 ± 6.2% and 14.2 ± 6.5%.
As to `C/C(=C\CC/C(C)=C/CC[C@]1(C)CCc2cc(OCC(N)=O)cc(C)c2O1)CCC=C(CO)CO` [Compound 32, 2-(((R)-2-((3E,7E)-13-Hydroxy-12-(hydroxymethyl)-4,8-dimethyltrideca-3,7,11-trien-1-yl)-2,8-dimethylchroman-6-yl)oxy)acetamide], at 5-LOX [1] (setting [3]), the IC50 is over 1000 nM. Moreover, the remaining activity at 1 µM on 5-LOX [1] (setting [4]) is 99.8 ± 5.6%.
As for `COc1ccc(C2OCC(=CCC/C(C)=C/CC/C(C)=C/CC[C@]3(C)CCc4cc(OCCCC(=O)O)cc(C)c4O3)CO2)cc1OC` (stereo partly drawn) [Compound 45, 4-(((2R)-2-((3E,7E)-11-(2-(3,4-Dimethoxyphenyl)-1,3-dioxan-5-ylidene)-4,8-dimethylundeca-3,7-dien-1-yl)-2,8-dimethylchroman-6-yl)oxy)butanoic Acid], the IC50 at 5-LOX [1] was over 1000 nM. For the same molecule, on 5-LOX [1] (setting [4]), the remaining activity at 1 µM came out at 83 ± 7.6%.
Turning to `C/C(=C\CC[C@]1(C)CCc2cc(O)cc(C)c2O1)CCC(O)C(C)(O)CCC=C(CO)CO` (stereo partly shown) [Compound 30], the IC50 at 5-LOX [1] (setting [3]) was found to be 380 ± 110 nM. In addition, on 5-LOX [1] (setting [4]), the remaining activity at 1 µM came out at 12.2 ± 4.1%.
For `COc1cc(C)c2c(c1)CC[C@@](C)(CC/C=C(\C)CC/C=C(\C)CCCC(C)C(=O)O)O2` (stereo partly drawn) [Compound 20, (6E,10E)-13-((R)-6-Methoxy-2,8-dimethylchroman-2-yl)-2,6,10-trimethyltrideca-6,10-dienoic Acid] the same measures were over 1000 nM and 98.1 ± 1.3%.
